Experimental data published in the OPERA property sets (Mansouri et al. 2018).

| SMILES | melting point [°C] | boiling point [°C] | further results |
| --- | --- | --- | --- |
| CC(C)Nc1ccc(NC(C)C)c2c1C(=O)c1ccccc1C2=O |  |  | ready biodegradability: not readily biodegradable |
| c1nnn[nH]1 | 157 |  |  |
| CCOC(C)Cl (stereo not given) |  | 93.5 |  |
| C[C@]12C[C@@H](O)[C@H]3[C@@H](CC[C@]4(O)C[C@@H](O)C[C@@H](O)[C@]34CO)[C@@]1(O)CC[C@@H]2C1=CC(=O)OC1 | 236 |  |  |
| O=C(O)COc1ccc2ccccc2c1 | 156 |  |  |
| Cc1ccc2ccccc2n1 | -1.5 | 246 | log10 vapour pressure (mmHg): -2.02 |
| Clc1cc(-c2c(Cl)cc(Cl)c(Cl)c2Cl)c(Cl)c(Cl)c1Cl |  |  | log10 Henry constant (atm·m³/mol): -5 |
| CC1=CCc2ccccc21 |  | 198 | log10 biodegradation half-life (days): 0.477 |
| CCCCSCCCC | -79.7 | 185 | log10 vapour pressure (mmHg): 0.0792 |
| C[C@@H]1C[C@H]2CC[C@H](O2)[C@H](C)C(=O)O[C@@H](C)C[C@@H]2CC[C@@H](O2)[C@@H](C)C(=O)O[C@H](C)C[C@H]2CC[C@H](O2)[C@H](C)C(=O)O[C@@H](C)C[C@@H]2CC[C@@H](O2)[C@@H](C)C(=O)O1 | 148 |  |  |
| CC(C)(C)OC(=O)CCl |  | 150 |  |
| Cc1ccc2c(c1[N+](=O)[O-])C(=O)c1ccccc1C2=O | 270 |  |  |
| C=CC(F)(Cl)C(F)(F)Br (stereo not given) |  | 99.5 |  |
| N#Cc1ccnc2ccccc12 | 104 | 242 |  |
| CC(C)N(C(=O)SCC(Cl)=CCl)C(C)C | 25 |  | log10 Koc (L/kg): 3.28; log10 vapour pressure (mmHg): -3.82 |
| O=C(Nc1ccccc1)c1cc2ccccc2cc1O | 248 |  | ready biodegradability: not readily biodegradable; log10 BCF (fish): 0.81 |
| CCCCCC(=O)c1ccccc1 | 27 | 265 |  |
| CCCCCC(C)Br (stereo not given) | 47 | 166 | log10 vapour pressure (mmHg): 0.358 |
| Cc1ccc(S(N)(=O)=O)cc1 | 138 |  | ready biodegradability: not readily biodegradable |
| SCCCCCCCCS |  | 270 |  |
| CCCC=CCC=O |  | 151 |  |
| OCC(CO)(CO)COCC(CO)(CO)CO | 221 |  | ready biodegradability: not readily biodegradable |
| COc1cc(OC)cc(O[C@H]2O[C@H](CO)[C@@H](O)[C@H](O)[C@H]2O)c1 | 170 |  |  |

| SMILES | melting point [°C] | boiling point [°C] | further results |
| --- | --- | --- | --- |
| Nc1ccc(Cl)cc1C(=O)O |  |  | ready biodegradability: not readily biodegradable |
| O=C1CCOCC1 |  | 166 |  |
| C#CC(C)(CC)OC(=O)c1ccccc1C(=O)O (stereo not given) | 97 |  |  |
| O=C(NCCO[N+](=O)[O-])c1cccnc1 | 92.5 |  |  |
| Oc1ccc2[nH]ccc2c1 | 108 |  |  |
| ClCc1ccc(Cl)cc1Cl | -2.6 | 248 | log10 vapour pressure (mmHg): -1.49 |
| BrCC1CO1 (stereo not given) | -40 | 135 |  |
| O=C1Nc2ccc(Br)cc2C1=O | 250 |  |  |
| CC[N+](C)(C)CCN(C)CC[N+](C)(C)CC.[Br-].[Br-] | 214 |  |  |
| COC(CCl)OC |  | 128 |  |
| COc1ccc(/C=C/C(=O)Nc2ccccc2C(=O)O)cc1OC | 212 |  |  |
| CCCCCc1cc(O)c2c(c1)OC(C)(C)c1ccc(C)cc1-2 | 77 |  | ready biodegradability: readily biodegradable |
| N#Cc1c(F)c(F)c(F)c(F)c1C#N | 83 |  |  |
| CCCC(CC)C(C)C (stereo not given) |  | 138 |  |
| COc1ccc(C=O)cc1 | 0 | 248 | log10 vapour pressure (mmHg): -1.48; ready biodegradability: readily biodegradable |
| N#CCCOc1cccc2ccccc12 | 64 |  |  |
| CS(=O)(=O)c1ccc([C@@H](O)[C@@H](CO)NC(=O)C(Cl)Cl)cc1 | 165 |  |  |
| Clc1cncc(Cl)c1 | 66 |  |  |
| ICC(CI)(CI)CI | 225 |  |  |
| CC(C)(Br)[N+](=O)[O-] |  | 153 |  |
| CC(C)c1ncc([N+](=O)[O-])n1C | 60 |  |  |
| CC1CCC(C(=O)O)C(C(=O)O)C1 (stereo not given) |  |  | log10 BCF (fish): 0.38 |
| O=CNc1ccccc1 | 46 | 271 | log10 vapour pressure (mmHg): -2.45 |

| SMILES | melting point [°C] | boiling point [°C] | further results |
| --- | --- | --- | --- |
| NC(=O)c1c(F)c(F)c(F)c(F)c1F | 147 |  |  |
| CC(=O)c1c(C)cc(C)cc1C |  | 241 |  |
| CNC(=O)Oc1c(C(C)(C)C)cc(C)cc1C(C)(C)C |  |  | ready biodegradability: not readily biodegradable |
| CC1C=CCCC1 (stereo not given) |  | 103 | log10 vapour pressure (mmHg): 1.54 |
| C=CCc1cccc2ccccc12 |  | 266 |  |
| CCCCCc1ccc2c(c1)C(=O)c1ccccc1C2=O |  |  | ready biodegradability: not readily biodegradable; log10 BCF (fish): 2.94; log10 biotransformation half-life (days) (fish): 0.2 |
| CCC1CCc2ccccc21 (stereo not given) |  | 212 |  |
| C/C=C/CO |  | 121 |  |
| O=C(O)c1ccc(O)c(C(=O)O)c1 | 310 |  |  |
| CC=CC(C)(C)O |  | 112 |  |
| Nc1c(F)c(F)cc(F)c1F | 31.5 | 158 |  |
| CC(C)(Oc1ccc(Cl)cc1)C(=O)OCc1cccnc1 | 48.5 |  |  |
| CNS(=O)(=O)c1ccc(C)cc1 | 78.5 |  |  |
| BrC/C=C/CBr | 53.4 | 203 |  |
| CC(C)(c1cc(Cl)c(O)c(Cl)c1)c1cc(Cl)c(O)c(Cl)c1 | 135 |  |  |
| ClCC(Cl)C(Cl)(Cl)Cl (stereo not given) |  | 180 |  |
| CC(=O)Cl | -113 | 50.7 | log10 vapour pressure (mmHg): 2.46 |
| C=C[C@H]1CNCC[C@H]1CCC(=O)c1ccnc2ccc(OC)cc12 | 60 |  |  |
| Clc1ccc(Oc2cccc(Cl)c2Cl)cc1 |  |  | log10 vapour pressure (mmHg): -3.94 |
| FC(F)C(F)(F)CBr |  | 74 |  |
| CCCC(C)C(C)(C)O (stereo not given) |  | 160 |  |
| CCCC(C)=C(C)C | -115 | 122 | log10 vapour pressure (mmHg): 1.26 |
| CCCCCCCCCCCCCCCCBr | 18 | 336 | log10 vapour pressure (mmHg): -4.31; ready biodegradability: readily biodegradable |
